Experimental data published in patent publication US4515767A, “Radioactive metals complexed with phosphonate derivatives of dicyclopentadienebis(methylamine)” (The Dow Chemical Company, priority 1983, dated 1985).

Columns and labels:
[1] = Uptake in end bone and midbone of femur in anesthetized rats, NaI scintillation counting (Table II); type: in vivo; conditions: vein, 120 minutes; for % Dose/gram End Bone: femur ends; for % Dose/gram Midbone: femur mid-section; for End-/Mid-bone: femur, ratio of end bone to midbone
Protocol: Fifty μl of the complex prepared in Example 1 was injected into the vein of anesthetized laboratory rats. After 120 minutes the animals were killed and the femurs removed. The ends of the bones were cut away from the mid-section and each section was weighed and analyzed separately. The amount of activity in the bone sections was quantitated using NaI scintillation counting. The results were compared to those of complexes prepared from commercial diphosphonate kits (Table II).

[2] = after intravenous administration; cited from earlier work

Compound	% Dose/gram End Bone [1]	% Dose/gram Midbone [1]	End-/Mid-bone [1]	accumulation by bone (in words) [2]
CC(O)(P(=O)(O)O)P(=O)(O)O [EHDP, hydroxyethanediphosphosphonate]	3.40 % Dose/gram	1.46 % Dose/gram	2.33	
O=P(O)(O)OP(=O)(O)O [PYP, pyrophosphate]	3.50 % Dose/gram	1.78 % Dose/gram	1.97	
[85Sr] [Sr-85, Strontium-85]				rapidly accumulated by bone
methylenediphosphonate [MDP]	3.95 % Dose/gram	1.90 % Dose/gram	2.08	
